Assay results as given in patent publication US20110165119A1, “TELAPREVIR DOSING REGIMEN” (priority 2008, published 2011).

What was measured:
[1] = in vivo; cited from earlier work
HCV NS3-4A protease = molecular target: T1, HCV NS3-4A protease (Hepatitis C virus genotype 1a, UniProt P27958); assay: in vitro potency against HCV NS3-4A protease; format: biochemical; settings: relative to telaprevir
T1 construct: against the HCV NS3-4A protease
T1 sequence (P27958 1027-1657): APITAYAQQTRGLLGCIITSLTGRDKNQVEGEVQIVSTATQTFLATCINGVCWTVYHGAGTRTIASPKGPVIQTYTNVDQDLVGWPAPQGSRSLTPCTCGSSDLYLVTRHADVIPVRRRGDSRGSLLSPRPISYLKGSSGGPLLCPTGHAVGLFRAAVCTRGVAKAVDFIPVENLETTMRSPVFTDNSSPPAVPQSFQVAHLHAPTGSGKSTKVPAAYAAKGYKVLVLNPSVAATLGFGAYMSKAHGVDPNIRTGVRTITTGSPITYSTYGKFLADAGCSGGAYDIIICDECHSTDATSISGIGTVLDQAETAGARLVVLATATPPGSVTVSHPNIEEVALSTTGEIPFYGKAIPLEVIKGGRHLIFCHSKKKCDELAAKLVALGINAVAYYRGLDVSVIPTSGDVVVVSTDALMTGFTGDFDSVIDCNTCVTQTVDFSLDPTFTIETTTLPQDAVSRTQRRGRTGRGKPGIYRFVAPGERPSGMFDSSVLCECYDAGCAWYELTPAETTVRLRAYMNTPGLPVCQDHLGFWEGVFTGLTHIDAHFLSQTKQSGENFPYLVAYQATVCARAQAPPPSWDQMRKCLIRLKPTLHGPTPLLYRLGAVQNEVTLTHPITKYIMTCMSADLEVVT
T1 sequence (P27958 1658-1711): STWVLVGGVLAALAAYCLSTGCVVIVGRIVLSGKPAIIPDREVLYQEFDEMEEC

| SMILES | oral bioavailability [1] | times less potent than telaprevir against the HCV NS3-4A protease (HCV NS3-4A protease) |
| --- | --- | --- |
| CCC[C@H](NC(=O)[C@@H]1[C@H]2CCC[C@H]2CN1C(=O)[C@@H](NC(=O)[C@@H](NC(=O)c1cnccn1)C1CCCCC1)C(C)(C)C)C(=O)C(=O)NC1CC1 (single isomer, unassigned) [Telaprevir] | orally bioavailable | – |
| CCCC(NC(=O)C1C2CCCC2CN1C(=O)C(NC(=O)C(NC(=O)c1cnccn1)C1CCCCC1)C(C)(C)C)C(=O)C(=O)NC1CC1 (single isomer, unassigned) [R-diastereisomer] | – | about 30 times |
